Laboratory results as given in patent US20090252673A1, “Methods of Making and Using Rubidium-81-Containing Compositions” (priority 2006, published 2009).

Experiments:
[1] = Biodistribution of Rb-81 in rats; format: in vivo, female Wistar rats; details: mean±SD, n=3
Procedure: 1.85-5.33 MBq (50-144 μCi) Rb-81 in 250 μl isotonic saline was injected into the lateral tail vein of 24 non-fasted female Wistar rats weighing 180-220 g (12 animals at each day).
All the animals were anesthesized with Isofluran (1.5 vol. % and 2.01/min 02) during the injection of the Rb-81 solution. 5 min, 10 min, 20 min, 30 min, 45 min, 1 h, 2 h and 4 h post injection of the Rb-81 solution, the animals were sacrificed by carbon dioxide inhalation (n=3 animals for all time points).
The organs of interest (heart, blood, lungs, liver, stomach, spleen, pancreas, small intestine, colon, kidney, adrenal gland, muscle, bone, brain and tail) were dissected, weighed and measured for activity using a well-type g-counter. Tracer accumulation was normalized to the organ weights. All data are expressed as percent of the injected dose per gram tissue (% ID/g, mean±SD).

[2] = system: rat heart (myocardium), normal and occlusion/reperfusion; experiment: Imaging of rat hearts using a small animal PET scanner; format: in vivo, female Wistar rats
Procedure: For the PET measurements, a microPET FOCUS 120 small animal scanner (Siemens Medical Solutions USA, Inc.) was used. Imaging was done on 4 female Wistar rats (200-250 g) (see Tab. 1). […] After 5 min, the occlusion was removed and dynamic PET images of the animals were taken for 4 h and 2 h. Two rats were used as controls without occlusion (rest). The first rat was injected with 20.2 MBq Rb-81 and the second rat with 69.3 MBq Rb-81, in 500 μl isotonic saline. Following injection, dynamic PET images of the animals were taken for 4 h (S1#1 und S1#2) and 2 h (S2#3 and S2#4). The Rb-81 solution was injected intravenously in the lateral tail vein of all animals. For occlusion, a 7-0 polypropylene suture on a small curved needle was passed through the left coronary artery (LCA), and ligated to occlude the LCA. After tracer injection, reperfusion was obtained by cutting the suture. LCA occlusion and reperfusion were confirmed by the color change of myocardial surface. […]
After PET imaging, all animals were sacrificed by carbon dioxide inhalation and the organs of interest (see above) were dissected, weighed and measured for activity using a well-type g-counter. […] All data are expressed as percent of the injected dose per gram tissue (% ID/g, mean±SD). […]

[3] = system: occlusion/reperfusion rat heart model; experiment: Ex vivo dual tracer autoradiography, Tl-201 and Rb-81 redistribution kinetics; format: in vivo, rats; details: for activity in occluded areas, percent of the uptake in normal tissues: 20 μm heart slices, phosphor-imager ROIs
Procedure: Three additional rats were simultaneously injected with 20 MBq Rb-81 and 2.7 MBq Tl-201. After the occlusion/injection/reperfusion procedure was completed (see FIG. 8), the animals were sacrificed at 0, 15 and 45 min after initiating the reperfusion.
After the hearts of the animals were removed and freshly frozen in liquid nitrogen, they were sliced into short axis 20 μm slices. Radioactivity in the tissues sections was determined by using a phosphor-imager. Rb-81 was measured over a period of 3 h directly after preparation of the slices, whereas the Tl-201 activity was determined after the Rb-81 activity was almost completed (Rb-81: t1/2=4.58 h versus a 4 day decay period).
Quantitative evaluations were carried out by comparison of the detected counts within regions-of-interest in both, normal tissue areas and occluded tissues areas. Comparisons are given in percent of normal heart tissue.

[4] = 5 min after application into the tail vein
[5] = 10 min after application into the tail vein
[6] = 20 min after application into the tail vein
[7] = 30 min after application into the tail vein
[8] = 45 min after application into the tail vein
[9] = 60 min after application into the tail vein
[10] = 120 min after application into the tail vein
[11] = 240 min after application into the tail vein

SMILES: [81Rb] [Rb-81, Rubidium-81]
- biodistribution, Adrenals [1, 4]: 3.68 ± 0.89 % ID/g
- biodistribution, Blood [1, 4]: 0.25 ± 0.07 % ID/g
- biodistribution, Bone [1, 4]: 0.48 ± 0.10 % ID/g
- biodistribution, Brain [1, 4]: 0.10 ± 0.02 % ID/g
- biodistribution, Heart [1, 4]: 4.18 ± 0.18 % ID/g
- biodistribution, Kidney [1, 4]: 9.21 ± 0.98 % ID/g
- biodistribution, Large Intestine [1, 4]: 1.03 ± 0.82 % ID/g
- biodistribution, Liver [1, 4]: 1.25 ± 0.05 % ID/g
- biodistribution, Lung [1, 4]: 2.09 ± 0.43 % ID/g
- biodistribution, Muscle [1, 4]: 0.18 ± 0.02 % ID/g
- biodistribution, Pancreas [1, 4]: 1.81 ± 0.20 % ID/g
- biodistribution, Small Intestine [1, 4]: 4.06 ± 0.91 % ID/g
- biodistribution, Spleen [1, 4]: 1.45 ± 0.30 % ID/g
- biodistribution, Stomach [1, 4]: 0.80 ± 0.41 % ID/g
- biodistribution, Adrenals [1, 5]: 3.44 ± 1.07 % ID/g
- biodistribution, Blood [1, 5]: 0.22 ± 0.04 % ID/g
- biodistribution, Bone [1, 5]: 0.66 ± 0.09 % ID/g
- biodistribution, Brain [1, 5]: 0.09 ± 0.03 % ID/g
- biodistribution, Heart [1, 5]: 4.30 ± 0.68 % ID/g
- biodistribution, Kidney [1, 5]: 6.96 ± 1.39 % ID/g
- biodistribution, Large Intestine [1, 5]: 1.22 ± 0.05 % ID/g
- biodistribution, Liver [1, 5]: 2.37 ± 0.20 % ID/g
- biodistribution, Lung [1, 5]: 1.74 ± 0.18 % ID/g
- biodistribution, Muscle [1, 5]: 0.31 ± 0.12 % ID/g
- biodistribution, Pancreas [1, 5]: 2.70 ± 0.02 % ID/g
- biodistribution, Small Intestine [1, 5]: 3.47 ± 0.33 % ID/g
- biodistribution, Spleen [1, 5]: 1.88 ± 0.21 % ID/g
- biodistribution, Stomach [1, 5]: 0.63 ± 0.26 % ID/g
- biodistribution, Adrenals [1, 6]: 2.92 ± 0.45 % ID/g
- biodistribution, Blood [1, 6]: 0.21 ± 0.04 % ID/g
- biodistribution, Bone [1, 6]: 0.65 ± 0.15 % ID/g
- biodistribution, Brain [1, 6]: 0.11 ± 0.02 % ID/g
- biodistribution, Heart [1, 6]: 2.55 ± 0.47 % ID/g
- biodistribution, Kidney [1, 6]: 2.90 ± 0.51 % ID/g
- biodistribution, Large Intestine [1, 6]: 0.70 ± 0.07 % ID/g
- biodistribution, Liver [1, 6]: 2.47 ± 0.64 % ID/g
- biodistribution, Lung [1, 6]: 1.62 ± 0.46 % ID/g
- biodistribution, Muscle [1, 6]: 0.31 ± 0.02 % ID/g
- biodistribution, Pancreas [1, 6]: 2.29 ± 0.73 % ID/g
- biodistribution, Small Intestine [1, 6]: 2.73 ± 0.64 % ID/g
- biodistribution, Spleen [1, 6]: 1.97 ± 0.47 % ID/g
- biodistribution, Stomach [1, 6]: 1.20 ± 0.46 % ID/g
- biodistribution, Adrenals [1, 7]: 2.08 ± 0.60 % ID/g
- biodistribution, Blood [1, 7]: 0.19 ± 0.03 % ID/g
- biodistribution, Bone [1, 7]: 0.63 ± 0.03 % ID/g
- biodistribution, Brain [1, 7]: 0.09 ± 0.01 % ID/g
- biodistribution, Heart [1, 7]: 2.69 ± 0.32 % ID/g
- biodistribution, Kidney [1, 7]: 2.91 ± 0.37 % ID/g
- biodistribution, Large Intestine [1, 7]: 0.53 ± 0.14 % ID/g
- biodistribution, Liver [1, 7]: 2.60 ± 0.43 % ID/g
- biodistribution, Lung [1, 7]: 1.73 ± 0.31 % ID/g
- biodistribution, Muscle [1, 7]: 0.36 ± 002 % ID/g
- biodistribution, Pancreas [1, 7]: 2.12 ± 0.13 % ID/g
- biodistribution, Small Intestine [1, 7]: 2.33 ± 0.72 % ID/g
- biodistribution, Spleen [1, 7]: 1.26 ± 0.78 % ID/g
- biodistribution, Stomach [1, 7]: 0.88 ± 0.24 % ID/g
- biodistribution, Adrenals [1, 8]: 1.32 ± 0.88 % ID/g
- biodistribution, Blood [1, 8]: 0.15 ± 0.08 % ID/g
- biodistribution, Bone [1, 8]: 0.38 ± 0.18 % ID/g
- biodistribution, Brain [1, 8]: 0.07 ± 0.03 % ID/g
- biodistribution, Heart [1, 8]: 1.58 ± 0.79 % ID/g
- biodistribution, Kidney [1, 8]: 1.56 ± 0.77 % ID/g
- biodistribution, Large Intestine [1, 8]: 0.47 ± 0.22 % ID/g
- biodistribution, Liver [1, 8]: 1.79 ± 1.07 % ID/g
- biodistribution, Lung [1, 8]: 1.02 ± 0.45 % ID/g
- biodistribution, Muscle [1, 8]: 0.21 ± 0.06 % ID/g
- biodistribution, Pancreas [1, 8]: 1.76 ± 0.91 % ID/g
- biodistribution, Small Intestine [1, 8]: 1.45 ± 0.82 % ID/g
- biodistribution, Spleen [1, 8]: 1.27 ± 0.57 % ID/g
- biodistribution, Stomach [1, 8]: 0.57 ± 0.24 % ID/g
- biodistribution, Adrenals [1, 9]: 1.45 ± 0.43 % ID/g
- biodistribution, Blood [1, 9]: 0.17 ± 0.01 % ID/g
- biodistribution, Bone [1, 9]: 0.54 ± 0.16 % ID/g
- biodistribution, Brain [1, 9]: 0.08 ± 0.02 % ID/g
- biodistribution, Heart [1, 9]: 1.48 ± 0.41 % ID/g
- biodistribution, Kidney [1, 9]: 1.45 ± 0.14 % ID/g
- biodistribution, Large Intestine [1, 9]: 0.53 ± 0.20 % ID/g
- biodistribution, Liver [1, 9]: 2.25 ± 0.77 % ID/g
- biodistribution, Lung [1, 9]: 1.00 ± 0.44 % ID/g
- biodistribution, Muscle [1, 9]: 0.35 ± 0.14 % ID/g
- biodistribution, Pancreas [1, 9]: 1.99 ± 0.73 % ID/g
- biodistribution, Small Intestine [1, 9]: 1.25 ± 0.34 % ID/g
- biodistribution, Spleen [1, 9]: 1.43 ± 0.41 % ID/g
- biodistribution, Stomach [1, 9]: 0.64 ± 0.31 % ID/g
- biodistribution, Adrenals [1, 10]: 0.56 ± 0.22 % ID/g
- biodistribution, Blood [1, 10]: 0.10 ± 0.05 % ID/g
- biodistribution, Bone [1, 10]: 0.33 ± 0.12 % ID/g
- biodistribution, Brain [1, 10]: 0.06 ± 0.03 % ID/g
- biodistribution, Heart [1, 10]: 0.67 ± 0.21 % ID/g
- biodistribution, Kidney [1, 10]: 0.76 ± 0.27 % ID/g
- biodistribution, Large Intestine [1, 10]: 0.36 ± 0.24 % ID/g
- biodistribution, Liver [1, 10]: 1.32 ± 0.73 % ID/g
- biodistribution, Lung [1, 10]: 0.60 ± 0.23 % ID/g
- biodistribution, Muscle [1, 10]: 0.24 ± 0.13 % ID/g
- biodistribution, Pancreas [1, 10]: 1.31 ± 0.66 % ID/g
- biodistribution, Small Intestine [1, 10]: 0.83 ± 0.37 % ID/g
- biodistribution, Spleen [1, 10]: 0.88 ± 0.42 % ID/g
- biodistribution, Stomach [1, 10]: 0.34 ± 0.15 % ID/g
- biodistribution, Adrenals [1, 11]: 0.75 ± 0.07 % ID/g
- biodistribution, Blood [1, 11]: 0.20 ± 0.01 % ID/g
- biodistribution, Bone [1, 11]: 0.61 ± 0.04 % ID/g
- biodistribution, Brain [1, 11]: 0.13 ± 0.01 % ID/g
- biodistribution, Heart [1, 11]: 0.81 ± 0.02 % ID/g
- biodistribution, Kidney [1, 11]: 0.90 ± 0.04 % ID/g
- biodistribution, Large Intestine [1, 11]: 0.59 ± 0.05 % ID/g
- biodistribution, Liver [1, 11]: 1.90 ± 0.03 % ID/g
- biodistribution, Lung [1, 11]: 0.79 ± 0.05 % ID/g
- biodistribution, Muscle [1, 11]: 0.61 ± 0.11 % ID/g
- biodistribution, Pancreas [1, 11]: 1.65 ± 0.20 % ID/g
- biodistribution, Small Intestine [1, 11]: 0.89 ± 0.02 % ID/g
- biodistribution, Spleen [1, 11]: 1.34 ± 0.06 % ID/g
- biodistribution, Stomach [1, 11]: 0.44 ± 0.15 % ID/g
- uptake in the myocardium ([2]; PET summation images, rat): highest shortly after administration
- period after re-opening of the occlusion over which filling in of the defect takes place (redistribution) ([2]; PET, rat with temporary coronary artery occlusion): 40 to 50 min
- activity in occluded areas, percent of the uptake in normal tissues ([3]; 0 min p.i.): 7%
- activity in occluded areas, percent of the uptake in normal tissues ([3]; 15 min p.i.): 37%
- activity in occluded areas, percent of the uptake in normal tissues ([3]; 45 min p.i.): 82%
- redistribution kinetics ([3]; compared with Tl-201, occluded heart areas after reperfusion): considerably faster

SMILES: [201Tl] [Tl-201, reference compound]
- activity in occluded areas, percent of the uptake in normal tissues ([3]; 0 min p.i.): 5%
- activity in occluded areas, percent of the uptake in normal tissues ([3]; 15 min p.i.): 28%
- activity in occluded areas, percent of the uptake in normal tissues ([3]; 45 min p.i.): 58%
